Key:
[1] = system: EB–DNA adduct (CT DNA); test: Competitive study with EB (EB–DNA fluorescence quenching); format: binding, calf
Method: Ethidium bromide is a typical marker of intercalation because it can intercalate between adjacent DNA bases with its planar phenanthridine ring.
The fluorescence emission spectra of the EB–DNA adduct ([EB] = 20 μM, [DNA] = 26 μM) in the absence and presence of the compounds were recorded at increasing amounts of the respective compounds. […] As a conclusion, an intercalative interaction of the complexes with CT DNA can be proposed.
The values of the Stern–Volmer constants (Ksv) for the compounds were calculated using the linear Stern–Volmer equation (Equation (S2)) and were of the order of 10^5 M^−1 (Table 8), indicating tight binding of the complexes with DNA [61]. The Ksv values for the complexes are in the range found for a number of metal(II)–quinolone complexes, and complex 12 presents the highest Ksv value (Ksv = 7.25(±0.30) × 10^5 M^−1) among the compounds studied. In addition, the EB–DNA quenching constants (kq) for the compounds were calculated with Equation (S3), assuming τo = 23 ns as the fluorescence lifetime. The values of kq (Table 8) are much higher than the value of 10^10 M^−1s^−1, indicating a static mechanism of EB–DNA fluorescence quenching induced by the compounds, which can result from the formation of a new adduct apparently consisting of each complex and DNA [61].
In order to determine and confirm the DNA–binding mode of the compounds, a competitive study with EB as an intercalating marker is performed b y fluorescence emission spectroscopy.
Therefo re, the E B–displacing abilit y of the compounds from its EB –DN A conjugate was ex amined.
The DNA–EB adduct was prepared b y addition of 20 μM EB and 26 μM CT DNA in buffer solution (150 mM NaCl and 15 mM trisodium citrate at pH 7.0). The potential intercalation of the compounds between the DNA–bases was studied by the addition of a certain amount of the compound solution into the EB–DNA adduct solution. The influence of the compounds on the EB – DNA solution was monitored through the changes of the fluorescence emission spectra at excitation […]
wavelen gth (λex ) at 540 nm [S3]. […]
room temperature in solution or in the presence of DNA, under the same experimental conditions (λex = 540 nm). Bearing t hat in mind, the observed quenching of the EB–DNA solution is evidentl y associated to the displacement of EB from its EB–DNA adduct.
The quenching effici ency (KSV) for each compound was assessed according to the Stern – Volmer equation: Io =1+ k τ [Q] = 1+ K [Q], (eq. S2) [S3] where I0 and I = the fluorescence […]
emission intensities of EB–DNA in the absence and presence of the quencher, respectivel y, [Q] = the concentration of the quencher (i.e. compounds). KSV is obtained from t he Stern–Volmer plots b y the slope of the diagram I0/ I versus [Q]. Taking τ0 = 23 ns as the fluorescence lifetime of the EB– DNA s ystem [S5], the EB –DNA quenching constants (k q) of the compounds can be determined accordin g to eq.S3: K SV = kqτo . […]
[S2] Irgi, E.P.; Geromichalos, G.D.; Balala, S.; Kljun, J.; Kalogiannis, S.; Papadopoulos, A.; Turel, I.; Psomas, G. Cobalt(II) complexes with quinolone antimicrobial drug oxolinic acid: […]
[ S 5] Heller, D.P.; Greenstock, C.L. Fluorescence lifetime analysis of DNA intercalated ethidium bromide and quenching by free d ye. Biophys. Chem . 1994, 50, 305–312.

[2] = system: Staphylococcus aureus ATCC 6538; test: Antimicrobial activity, MIC determination; format: cell-based; settings: S. aureus; 24-h incubation, 37°C
Method: (§1) The in vitro antimicrobial activity of the compounds was evaluated by determining the minimum inhibitory concentration (MIC) against the Gram-positive microorganisms Staphylococcus aureus ATCC 6538 (S. aureus) and Bacillus subtilis ATCC 6633 (B. subtilis) and the Gram-negative microorganism Xanthomonas campestris ATCC 1395 (X. campestris). The affinity of the compounds for bovine serum albumin (BSA) and human serum albumin (HSA) was studied by fluorescence emission spectroscopy, and the corresponding binding constants were determined. Furthermore, the interaction of the compounds with calf-thymus DNA (CT DNA) was investigated to determine the possible mode of interaction by the following methods: (i) UV–vis spectroscopy (where the DNA-binding constants of the complexes (Kb) were also determined), (ii) DNA-viscosity measurements, (iii) cyclic voltammetry and (iv) competitive DNA-binding studies with the classic intercalator ethidium bromide (EB) performed by fluorescence emission spectroscopy.
(§2) Three bacterial strains, one Gram(−) (X. campestris) and two Gram(+) (S. aureus and B. subtilis), were used in order to test the antimicrobial activity of the compounds.
(§3) The antimicrobial activity of the compounds was evaluated b y determining their respective MIC values towards one Gram–( –) (Xanthomonas campestris ATCC 1395 (X. campestris)) and two Gram–(+) (Staphylococcus aureus ATCC 6538 (S. aureus) and Bacillus subtilis ATCC 6633 (B. subtilis)) bacterial species. Cultures of these microbial strains were grown on a rich selective agar medium and stored at 4°C. The selective media used were Nutrient Agar or Broth for B. subtilis and S. aureus, and Yeast Mold Agar or Broth for X. campestris . Cells picked from the surface of the stored cultures were used to initiate liquid pre–cultures of the same selective medium at an initial turbidity of roughl y 1 McFarland unit. Pre–cultures were incubated for 24 h in a rotar y sh aking incubator and subsequently the y were used to inoculate the test cultures used for the determination of MIC at an initial turbidity of 0.5 McFarland units. The test cultures consisted of Mueller–Hinton broth (Deben Diagnostics Ltd) containing different concentrations of the compounds. Different concentrations were achieved as follows: the compounds were freshly dissolved in DMSO to a concentration of 1 mg/mL and they were diluted with DMSO, using the method of progressive double dilution. Therefore, working solutions with decreasing concentrations of the compounds under investigation were achieved. The working solutions were subsequently diluted to the final desired concentration b y addition to the growth medium at a proportion of 2:98. MIC values were determined as the lowest concentrations of the tested compounds that inhibited visible growth of each respective organism after a 24–h incubation [ S1]. Bacterial growth was determined b y measuring the turbidit y of appropriatel y diluted cultures at 600 nm with reference to equall y diluted sterile growth medium and the inhibition achieved was calculated b y comparing the turbidit y of each culture to the average of the turbidit y of three non–inhibited cultures. All test cultures were grown in triplicates and for the determination of MIC, growth had to be inhibited in at least two cultures of the triplicate. In cubation temperatur e at all stages was 37°C ex cept for X. campestris t h at was cultivated at 28°C [S2]. […]
(§4) The fluorescence spectra of the compounds were recorded under the same experimental conditions and presented a low–intensity emission band in the region 405–410 nm .

[3] = system: Xanthomonas campestris ATCC 1395; test: Antimicrobial activity, MIC determination; format: cell-based; settings: X. campestris; 24-h incubation, 28°C
Method: as §1, §2, §3, §4

[4] = system: Bacillus subtilis ATCC 6633; test: Antimicrobial activity, MIC determination; format: cell-based; settings: B. subtilis; 24-h incubation, 37°C
Method: as §1, §2, §3, §4

[5] = target: T1, bovine serum albumin (BSA) (Bos taurus, UniProt P02769); test: Albumin binding by tryptophan fluorescence emission quenching
T1 construct: purchased
T1 sequence (P02769 25-607): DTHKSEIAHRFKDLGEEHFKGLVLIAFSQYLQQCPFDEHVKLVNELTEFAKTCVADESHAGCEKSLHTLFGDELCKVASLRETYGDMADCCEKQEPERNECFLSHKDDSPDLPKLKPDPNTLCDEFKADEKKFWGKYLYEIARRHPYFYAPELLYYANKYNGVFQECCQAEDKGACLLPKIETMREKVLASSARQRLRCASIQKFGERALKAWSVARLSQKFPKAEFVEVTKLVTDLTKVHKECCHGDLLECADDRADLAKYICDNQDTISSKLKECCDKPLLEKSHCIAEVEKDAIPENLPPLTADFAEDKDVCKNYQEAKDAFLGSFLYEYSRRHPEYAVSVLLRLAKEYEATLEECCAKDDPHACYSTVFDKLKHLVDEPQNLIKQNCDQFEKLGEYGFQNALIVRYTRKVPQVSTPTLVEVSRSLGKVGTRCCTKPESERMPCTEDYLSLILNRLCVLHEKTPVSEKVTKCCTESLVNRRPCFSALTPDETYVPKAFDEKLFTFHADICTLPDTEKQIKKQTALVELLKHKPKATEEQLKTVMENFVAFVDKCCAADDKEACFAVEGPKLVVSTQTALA
Method: (§5) Serum albumins (Sas) are the most abundant serum proteins and play a role in the circulatory system, primarily in the transport of drugs and other bioactive small molecules through the bloodstream.
(§6) The SA-quenching constants (kq) for the compounds (Table 5) were calculated with the Stern–Volmer quenching equation (Equations (S2) and (S3)).
(§7) Albumin-binding constants (K) were calculated using the Scatchard equation (Equation (S4)). […]
(§8) S2. Interaction with serum albumins
(§9) The albumin–binding study for the compounds was carried out b y fluorescence emission

[6] = target: T2, human serum albumin (HSA) (Homo sapiens, UniProt P02768); test: as above
T2 construct: purchased
T2 sequence (P02768 25-609): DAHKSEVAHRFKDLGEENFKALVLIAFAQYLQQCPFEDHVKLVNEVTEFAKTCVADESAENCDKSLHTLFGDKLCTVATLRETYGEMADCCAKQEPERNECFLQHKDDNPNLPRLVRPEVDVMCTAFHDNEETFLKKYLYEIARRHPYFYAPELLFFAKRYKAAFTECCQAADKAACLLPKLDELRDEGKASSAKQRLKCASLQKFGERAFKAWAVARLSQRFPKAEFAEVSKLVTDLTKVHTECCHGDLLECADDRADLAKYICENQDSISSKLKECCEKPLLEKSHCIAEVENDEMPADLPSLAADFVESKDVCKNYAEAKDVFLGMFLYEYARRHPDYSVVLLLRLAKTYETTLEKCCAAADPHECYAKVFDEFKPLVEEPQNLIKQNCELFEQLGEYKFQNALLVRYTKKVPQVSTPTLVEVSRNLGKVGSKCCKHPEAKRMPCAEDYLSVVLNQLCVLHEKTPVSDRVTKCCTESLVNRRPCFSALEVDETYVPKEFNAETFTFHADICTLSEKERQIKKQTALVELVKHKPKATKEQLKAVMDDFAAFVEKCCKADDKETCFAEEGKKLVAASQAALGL
Method: as §5, §6, §7, §8, §9

CN1CCN(c2c(F)cc3c(=O)c(C(=O)[O-])cn(CCF)c3c2F)CC1.CN1CCN(c2c(F)cc3c(=O)c(C(=O)[O-])cn(CCF)c3c2F)CC1.[Zn+2].c1cnc2c(c1)ccc1cccnc12 [complex 14, [Zn(flrx)2(phen)]]
Ksv, Stern–Volmer constant ([1]; EB–DNA adduct): 3.03(±0.05) × 10^5 M^–1
ΔI/Io, percentage of EB–DNA fluorescence quenching ([1]; [EB] = 20 μM, [DNA] = 26 μM, λexc 540 nm, λem 592 nm): 77.9%
EB–DNA relative fluorescence emission intensity, % of the initial (I/Io) ([1]; λemission = 592 nm, final value (up to), Figure S14): 22.1%
kq, EB–DNA quenching constant ([1]; τo = 23 ns): 1.32(±0.02) × 10^13 M^−1s^−1
MIC [2]: 8 µg/mL
MIC (values in parentheses) [2]: 8.1 µM
MIC [3]: 16 µg/mL
MIC (values in parentheses) [3]: 16.3 µM
MIC [4]: 8 µg/mL
MIC (values in parentheses) [4]: 8.1 µM
K(BSA), BSA-binding constant ([5]; BSA 3 μM, buffer pH 7.0, Scatchard equation): 5.56(±0.25) × 10^4 M^−1
kq(BSA), BSA-quenching constant ([5]; BSA 3 μM, buffer pH 7.0, λexc 295 nm, Stern–Volmer, τ0 = 10^–8 s): 1.61(±0.07) × 10^13 M^−1s^−1
BSA fluorescence, % of the initial fluorescence intensity (I/Io) ([5]; λem,max = 342 nm, final value of titration (Figure S11)): 25.8%
K(HSA), HSA-binding constant ([6]; HSA 3 μM, buffer pH 7.0, Scatchard equation): 6.16(±0.43) × 10^4 M^−1
kq(HSA), HSA-quenching constant ([6]; HSA 3 μM, buffer pH 7.0, λexc 295 nm, Stern–Volmer, τ0 = 10^–8 s): 1.10(±0.04) × 10^13 M^−1s^−1
HSA fluorescence, % of the initial fluorescence intensity (I/Io) ([6]; λem,max = 351 nm, final value of titration (Figure S10)): 33.5%
